# Earlier results, collected in patent publication US11472782B2, “RIP1 inhibitory compounds and methods for making and using the same” (priority 2018, dated 2022).
# Test system: TNF-alpha induced hypothermia
# Conditions: mouse, dose of 30 mg/kg, according to WO 2014/125444
smiles,measurement,value
"CN1C(=O)[C@@H](NC(=O)c2nnc(Cc3ccccc3)[nH]2)COc2ccccc21 [comparative compound, (S)-5-benzyl-N-(5-methyl-4-oxo-2,3,4,5-tetrahydrobenzo[b][1,4]oxazepin-3-yl)-4H-1,2,4-triazole-3-carboxamide]",inhibition of TNF-alpha induced hypothermia,93%
